Measurements reported in publication PMC8113097 (Bioorganic & medicinal chemistry letters, 2021).

Key:
[1] = target: T1, LDHA (Homo sapiens, UniProt P00338); assay: LDHA enzyme inhibition; format: biochemical; settings: 6g vs 6f
[2] = target: LDHB (Homo sapiens, UniProt P07195); assay: LDHB enzyme inhibition; format: biochemical
[3] = target: T1, LDHA; assay: Binding to LDHA by SPR; settings: for SPR τ: residence time on LDHA
[4] = Rat microsomal stability; format: in vitro ADME; settings: microsomal data
[5] = PAMPA permeability; format: in vitro ADME
[6] = tested on: A673 Ewing's Sarcoma line; assay: Inhibition of proliferation; format: cell-based; settings: A673 cells

Sequence of LDHB (P07195 whole entry): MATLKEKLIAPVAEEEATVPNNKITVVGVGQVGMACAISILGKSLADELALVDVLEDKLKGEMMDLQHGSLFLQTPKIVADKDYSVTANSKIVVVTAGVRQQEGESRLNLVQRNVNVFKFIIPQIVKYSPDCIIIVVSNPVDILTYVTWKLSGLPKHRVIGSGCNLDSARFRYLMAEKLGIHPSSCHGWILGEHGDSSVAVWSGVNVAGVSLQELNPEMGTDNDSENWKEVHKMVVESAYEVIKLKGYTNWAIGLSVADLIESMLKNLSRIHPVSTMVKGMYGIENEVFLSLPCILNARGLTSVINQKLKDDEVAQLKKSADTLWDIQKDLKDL

| Structure (SMILES) | fold less potent in LDHA inhibition compared with 6f [1] | IC50 [2] [nM] | binding to LDHA by SPR (in words) [3] | residence time / dissociation kinetics by SPR (in words) [3] | SPR τ [3] | metabolic stability (in words) [4] | PAMPA Perm [5] [cm/s] | proliferation IC50 values (in words) [6] |
| --- | --- | --- | --- | --- | --- | --- | --- | --- |
| NS(=O)(=O)c1ccc(Cc2cn(-c3nc(C(=O)O)cs3)nc2-c2cccc(OCc3cccnc3)c2)cc1 [6g] | ~ 3 fold |  |  |  |  |  |  |  |
| NS(=O)(=O)c1ccc(Cc2c(-c3ccc(F)c(OCC4CC4(F)F)c3)nn(-c3nc(C(=O)O)cs3)c2CC2CC2)cc1F (centres unmarked) [12b] |  | 3 | very tight binding | long residence times | 21,052 s | reasonable | 4.9e-06 |  |
| NS(=O)(=O)c1ccc(Cc2c(-c3ccc(F)c(OC4CC4)c3)nn(-c3nc(C(=O)O)cs3)c2CC2CC2)cc1F [12e] |  | 3 | very tight binding | long residence times | 19,230 s | reasonable | 5.8e-06 |  |
| NS(=O)(=O)c1ccc(Cc2c(-c3cccc(OCc4ccccc4)c3)nn(-c3nc(C(=O)O)cs3)c2CC2CC2)cc1F [12g] |  | 5 |  |  | 88,496 s |  | 1.1e-06 | submicromolar |
| NS(=O)(=O)c1ccc(Cc2c(-c3ccc(F)c(OCc4cccc(F)c4)c3)nn(-c3nc(C(=O)O)cs3)c2CC2CC2)cc1F [12h] |  | 5 | very tight binding | long residence times | 13,568 s | quite poor | 2.9e-06 | submicromolar |
| NS(=O)(=O)c1ccc(Cc2c(-c3ccc(F)c(OCc4ccc(C(F)(F)F)o4)c3)nn(-c3nc(C(=O)O)cs3)c2CC2CC2)cc1F [12j] |  | 6 | very tight binding | long residence times | 100,000 s |  | 1.2e-05 | submicromolar |
| Cc1ccc(Oc2cc(-c3nn(-c4nc(C(=O)O)cs4)c(CC4CC4)c3Cc3ccc(S(N)(=O)=O)c(F)c3)ccc2F)cc1 [12p] |  | 19 | very tight binding | long residence times | 9,708 s | quite poor | 1.3e-05 | submicromolar |

Continued, values first:

| fold less potent in LDHA inhibition compared with 6f [1] | IC50 [2] [nM] | binding to LDHA by SPR (in words) [3] | residence time / dissociation kinetics by SPR (in words) [3] | SPR τ [3] | metabolic stability (in words) [4] | PAMPA Perm [5] [cm/s] | proliferation IC50 values (in words) [6] | Structure (SMILES) |
| --- | --- | --- | --- | --- | --- | --- | --- | --- |
|  | 8 |  | faster dissociation kinetics | 286 s |  | 1.6e-06 |  | NS(=O)(=O)c1ccc(Cc2c(-c3cccc(N4CCOCC4)c3)nn(-c3nc(C(=O)O)cs3)c2CC2CC2)cc1F [13a] |
|  | 1 |  | faster dissociation kinetics | 59 s |  | 4.4e-06 |  | NS(=O)(=O)c1ccc(Cc2c(-c3cccc(Nc4ccccc4)c3)nn(-c3nc(C(=O)O)cs3)c2CC2CC2)cc1 [13h] |
|  | 2 |  |  |  | good stability | 6.4e-06 |  | NS(=O)(=O)c1ccc(Cc2c(-c3ccc(F)c(NC(=O)c4ccccc4)c3)nn(-c3nc(C(=O)O)cs3)c2CC2CC2)cc1F [13i] |
|  | 4 |  |  |  | good stability | 5.7e-06 |  | NS(=O)(=O)c1ccc(Cc2c(-c3ccc(F)c(C(=O)N4CCCC4)c3)nn(-c3nc(C(=O)O)cs3)c2CC2CC2)cc1F [14b] |
|  | 2 |  |  |  |  | 8.7e-06 |  | NS(=O)(=O)c1ccc(Cc2c(-c3ccc(F)c(C(=O)NCc4ccccc4)c3)nn(-c3nc(C(=O)O)cs3)c2CC2CC2)cc1F [14d] |
